Each molecule was assayed on KRAS mRNA (assay: KRAS mRNA steady-state levels by Taqman Real-time RT-PCR). Details: HCT116, 72 h, IC50 concentrations.

Row | Compound | down-regulation of KRAS transcription (mRNA) [%]
1 | O=C(OCCCN1CCCCC1)c1ccc2c(c1)c1c(c(=O)c3ccccc3n1CCCN1CCCCC1)n2CCCN1CCCCC1 [2d] | ~40

Same assay, conditions: SW620, 72 h, IC50 concentrations

Row | Compound | down-regulation of KRAS transcription (mRNA)
2 | O=C(OCCCN1CCCCC1)c1ccc2c(c1)c1c(c(=O)c3ccccc3n1CCCN1CCCCC1)n2CCCN1CCCCC1 [2d] | not significantly so

The molecules below were run on HEK293T cells (assay: MTS short-term cytotoxicity assay (72 h), HEK293T). Details: Homo sapiens, HEK-293T, MTS, standard errors ≤ 0.1, read-out: HEK293T IC50.
Type: cell-based, human
Procedure: (§1) The short-term effect of compounds at 72 h on cell growth was studied using colorectal carcinoma cell lines with different KRAS and TP53 genotypes: human colorectal carcinoma HCT116 (mut Kras, wild-type (wt) p53), and human metastatic colorectal adenocarcinoma SW620 (mut Kras, mut p53). In parallel, we also used the immortalized human embryonic kidney cell line HEK293T (wt Kras, wt p53) and normal human colon fibroblast cells CCD18co (wt Kras, wt p53).
(§2) SW620 human colorectal adenocarcinoma cells (European Collection of Cell Cultures, ECACC, Porton Down, Wiltshire, UK), HEK293T human embryonic kidney cells (ATCC, LGC Standards, UK) HCT116 human colon carcinoma cells (ECACC), HCT116 p53(+/+) and p53(−/−) isogenic human colon cancer cells (GRCF Cell Center and Biorepository, the Johns Hopkins University, School of Medicine, Baltimore, MD, USA), were grown in Dulbecco’s modified Eagle’s medium (DMEM) supplemented with 10% fetal bovine serum, and 1% antibiotic/antimycotic (Invitrogen, Grand Island, NY, USA), CCD18co human colon fibroblasts (ATCC, CRL-1459) were grown in Minimum Essential Medium (MEM) supplemented with 10% fetal bovine serum, 1% antibiotic/antimycotic, 2 mM GlutaMAX, 0,1 mM Non-essential amino acids (NEAA) (Invitrogen) and […] Recombinant Human TNF-α (Peprotech, USA) and maintained at 37°C in a humidified atmosphere of 5% CO2.
(§3) Cell viability was evaluated by the tetrazolium dye (MTS) Short-Term Cytotoxicity Assay. […] Following 72 h of compound exposure, cell viability was evaluated using the CellTiter 96 AQueous Non-Radioactive Cell Proliferation Assay (Promega, Madison, WI, USA), using 3-(4,5-dimethylthiazol-2-yl)-5-(3-carboxymethoxyphenyl)-2-(4-sulfophenyl)-2H-tetrazolium, inner salt (MTS) as previously described [35]. Cell viability data were expressed as mean ±SD from at least three independent experiments. IC50 and IC65 values were determined using GaphPad Prism v.5.00 (GraphPad Software). In selected experiments, cell viability was also assessed by trypan blue exclusion assay, and general cell death by LDH activity from cell culture supernatants.

Row | Compound | IC50 [nM]
3 | O=C(OCCCN1CCCCC1)c1ccc2c(c1)c1c(c(=O)c3ccccc3n1CCCN1CCCCC1)n2CCCN1CCCCC1 [2d] | 700

Same assay, conditions: MTS, standard errors ≤ 0.1

Row | Compound | HEK293T IC65 [nM]
4 | O=C(OCCCN1CCCCC1)c1ccc2c(c1)c1c(c(=O)c3ccccc3n1CCCN1CCCCC1)n2CCCN1CCCCC1 [2d] | 1120

Each molecule was assayed on HSP90A G-quadruplex DNA (assay: FRET melting assay, HSP90A G-quadruplex DNA). Details: 1 μM compound; standard deviation < 0.2°C.
Type: binding
Procedure: (§4) The capacity of compounds 1a-d, 2a-d and the standard G4 ligand TMPyP4 (Fig 1) to bind and stabilize KRAS [26] and HSP90A [27] G4 DNA structures as well as duplex DNA (T-loop) was evaluated by a Fluorescence Resonance Energy Transfer (FRET) melting assay. […] It was observed that the basicity of side chains correlates positively with thermal G4 stabilization of all DNA sequences up to an optimal pKa ~ 8.0–9.0 (Fig 2). Heterocyclic amines at the end of alkyl side chain (1b and 2b) appear to improve binding to G4s and complex stabilization compared to the di-ethylamine group (1a and 2a), which cannot be explained by differences in basicity between terminal groups. […] However, this was not observed for the isomeric pair 1a / 2a.
(§5) All oligonucleotides were purchased from Eurofins MWG Synthesis GmbH, Germany. The labeled oligonucleotides used in the FRET assays had attached the donor fluorophore FAM (6-carboxyfluorescein) and the acceptor fluorophore TAMRA (6-carboxytetramethylrhodamine): KRAS21R (5’-FAM-[…]-TAMRA-3’); HSP90A (5’- [FAM]-[…]-[TAMRA]-3’); T-Loop (5’-FAM-[…]-TAMRA-3’). Each oligonucleotide was initially diluted to a storage solution at 100 μM in nuclease free water (not DEPC-treated), purchased from Ambion Applied Biosystems UK.
(§6) The ability of IQ3A and TMPyP4 to stabilize G-quadruplex and duplex DNA sequences was investigated using a Fluorescence Resonance Energy Transfer (FRET) assay. Stock solution of the oligonucleotides sequences at 20 μM and subsequent dilutions were obtained from storage solutions diluting with K-cacodylate buffer pH = 7.4, containing 60 mM K^+ (10 mM potassium cacodylate, 50 mM KCl). The FRET probe sequences were diluted from stock to the correct concentration (0.4 μM) and then annealed by heating to 95°C for 10 min, followed by cooling to RT. Test compounds were prepared as 1 mM in 10% DMSO and 10% 1mM HCl in HPLC-grade water. The rest of the dilutions were performed using FRET buffer. Annealed DNA (50 μL) and compound solution (50 μL) were distributed across 96-well RT-PCR plates (BioRad; MJ Research, Waltham, MA, USA). Relevant controls were also performed to check for interference with the assay. Fluorescence readings were made on a DNA Engine Opticon (MJ Research) with excitation at 450–495 nm and detection at 515–545 nm, taken at intervals of 0.5°C in the range 30–100°C, with a constant temperature being maintained for 30 s prior to each reading to ensure a stable value. Experiments were performed in triplicate. Final analysis of the data was carried out with GraphPad Prism 5.0 software (GraphPad Software, Inc). The advanced curve-fitting function in GraphPad Prism was used for calculation of ΔT m values and associated standard deviations.

Row | Compound | ΔTm (°C) HSP90A 1 μM [°C]
5 | O=C(OCCN1CCCC1)c1ccc2c(c1)c1nc3ccccc3c(OCCN3CCCC3)c1n2CCN1CCCC1 [1b] | 12
6 | O=C(OCCN1CCOCC1)c1ccc2c(c1)c1nc3ccccc3c(OCCN3CCOCC3)c1n2CCN1CCOCC1 [1c] | 4
7 | O=C(OCCCN1CCCCC1)c1ccc2c(c1)c1nc3ccccc3c(OCCCN3CCCCC3)c1n2CCCN1CCCCC1 [1d] | 15
8 | O=C(OCCN1CCCC1)c1ccc2c(c1)c1c(c(=O)c3ccccc3n1CCN1CCCC1)n2CCN1CCCC1 [2b] | 14
9 | O=C(OCCCN1CCCCC1)c1ccc2c(c1)c1c(c(=O)c3ccccc3n1CCCN1CCCCC1)n2CCCN1CCCCC1 [2d] | 19

Same assay, conditions: 2 μM compound; standard deviation < 0.2°C

Row | Compound | ΔTm (°C) HSP90A 2 μM [°C]
10 | O=C(OCCN1CCCC1)c1ccc2c(c1)c1nc3ccccc3c(OCCN3CCCC3)c1n2CCN1CCCC1 [1b] | 16
11 | O=C(OCCN1CCOCC1)c1ccc2c(c1)c1nc3ccccc3c(OCCN3CCOCC3)c1n2CCN1CCOCC1 [1c] | 7
12 | O=C(OCCCN1CCCCC1)c1ccc2c(c1)c1nc3ccccc3c(OCCCN3CCCCC3)c1n2CCCN1CCCCC1 [1d] | 21
13 | O=C(OCCN1CCCC1)c1ccc2c(c1)c1c(c(=O)c3ccccc3n1CCN1CCCC1)n2CCN1CCCC1 [2b] | 19
14 | O=C(OCCCN1CCCCC1)c1ccc2c(c1)c1c(c(=O)c3ccccc3n1CCCN1CCCCC1)n2CCCN1CCCCC1 [2d] | 25

These molecules were tested on HCT116 cells (assay: MTS short-term cytotoxicity assay (72 h), HCT116). Details: 72 h, MTS; standard errors ≤ 0.1.
Type: cell-based, human
Procedure: as §1, §2, §3

Row | Compound | HCT116 IC65 [nM]
15 | O=C(OCCCN1CCCCC1)c1ccc2c(c1)c1c(c(=O)c3ccccc3n1CCCN1CCCCC1)n2CCCN1CCCCC1 [2d] | 580

Same assay, conditions: CCD18co vs HCT116

Row | Compound | Selective index (SI) = IC50 CCD-18co / IC50 HCT116
16 | O=C(OCCCN1CCCCC1)c1ccc2c(c1)c1c(c(=O)c3ccccc3n1CCCN1CCCCC1)n2CCCN1CCCCC1 [2d] | 5.45

Same assay, conditions: Homo sapiens, HCT-116; 72 h, MTS; standard errors ≤ 0.1; read-out: HCT116 IC50

Row | Compound | IC50 [nM]
17 | O=C(OCCCN1CCCCC1)c1ccc2c(c1)c1c(c(=O)c3ccccc3n1CCCN1CCCCC1)n2CCCN1CCCCC1 [2d] | 400

What follows are molecules tested on KRAS21 G-quadruplex DNA (assay: FRET melting assay, KRAS G-quadruplex DNA). Details: 1 μM compound; standard deviation < 0.2°C.
Type: binding
Procedure: as §4, §5, §6

Row | Compound | ΔTm (°C) KRAS21 1 μM [°C]
18 | O=C(OCCN1CCCC1)c1ccc2c(c1)c1nc3ccccc3c(OCCN3CCCC3)c1n2CCN1CCCC1 [1b] | 5
19 | O=C(OCCN1CCOCC1)c1ccc2c(c1)c1nc3ccccc3c(OCCN3CCOCC3)c1n2CCN1CCOCC1 [1c] | <2
20 | O=C(OCCCN1CCCCC1)c1ccc2c(c1)c1nc3ccccc3c(OCCCN3CCCCC3)c1n2CCCN1CCCCC1 [1d] | 9
21 | O=C(OCCN1CCCC1)c1ccc2c(c1)c1c(c(=O)c3ccccc3n1CCN1CCCC1)n2CCN1CCCC1 [2b] | 10
22 | O=C(OCCCN1CCCCC1)c1ccc2c(c1)c1c(c(=O)c3ccccc3n1CCCN1CCCCC1)n2CCCN1CCCCC1 [2d] | 13

Same assay, conditions: 2 μM compound; standard deviation < 0.2°C

Row | Compound | ΔTm (°C) KRAS21 2 μM [°C]
23 | O=C(OCCN1CCCC1)c1ccc2c(c1)c1nc3ccccc3c(OCCN3CCCC3)c1n2CCN1CCCC1 [1b] | 10
24 | O=C(OCCN1CCOCC1)c1ccc2c(c1)c1nc3ccccc3c(OCCN3CCOCC3)c1n2CCN1CCOCC1 [1c] | <2
25 | O=C(OCCCN1CCCCC1)c1ccc2c(c1)c1nc3ccccc3c(OCCCN3CCCCC3)c1n2CCCN1CCCCC1 [1d] | 18
26 | O=C(OCCN1CCCC1)c1ccc2c(c1)c1c(c(=O)c3ccccc3n1CCN1CCCC1)n2CCN1CCCC1 [2b] | 16
27 | O=C(OCCCN1CCCCC1)c1ccc2c(c1)c1c(c(=O)c3ccccc3n1CCCN1CCCCC1)n2CCCN1CCCCC1 [2d] | 22

These molecules were tested on CCD18co cells (assay: MTS short-term cytotoxicity assay (72 h), CCD18co). Details: Homo sapiens, CCD-18Co, MTS, standard errors ≤ 0.1, read-out: CCD18co IC50.
Type: cell-based
Procedure: as §1, §2, §3

Row | Compound | IC50 [nM]
28 | O=C(OCCCN1CCCCC1)c1ccc2c(c1)c1c(c(=O)c3ccccc3n1CCCN1CCCCC1)n2CCCN1CCCCC1 [2d] | 2180

These molecules were tested on T-Loop duplex DNA (assay: FRET melting assay, duplex DNA). Details: 1 μM compound; standard deviation < 0.2°C.
Type: binding
Procedure: as §4, §5, §6

Row | Compound | ΔTm (°C) T-Loop 1 μM [°C]
29 | O=C(OCCN1CCCC1)c1ccc2c(c1)c1nc3ccccc3c(OCCN3CCCC3)c1n2CCN1CCCC1 [1b] | <2
30 | O=C(OCCN1CCOCC1)c1ccc2c(c1)c1nc3ccccc3c(OCCN3CCOCC3)c1n2CCN1CCOCC1 [1c] | <2
31 | O=C(OCCCN1CCCCC1)c1ccc2c(c1)c1nc3ccccc3c(OCCCN3CCCCC3)c1n2CCCN1CCCCC1 [1d] | <2
32 | O=C(OCCN1CCCC1)c1ccc2c(c1)c1c(c(=O)c3ccccc3n1CCN1CCCC1)n2CCN1CCCC1 [2b] | 3
33 | O=C(OCCCN1CCCCC1)c1ccc2c(c1)c1c(c(=O)c3ccccc3n1CCCN1CCCCC1)n2CCCN1CCCCC1 [2d] | 4

Same assay, conditions: 2 μM compound; standard deviation < 0.2°C

Row | Compound | ΔTm (°C) T-Loop 2 μM [°C]
34 | O=C(OCCN1CCCC1)c1ccc2c(c1)c1nc3ccccc3c(OCCN3CCCC3)c1n2CCN1CCCC1 [1b] | 6
35 | O=C(OCCN1CCOCC1)c1ccc2c(c1)c1nc3ccccc3c(OCCN3CCOCC3)c1n2CCN1CCOCC1 [1c] | <2
36 | O=C(OCCCN1CCCCC1)c1ccc2c(c1)c1nc3ccccc3c(OCCCN3CCCCC3)c1n2CCCN1CCCCC1 [1d] | 10
37 | O=C(OCCN1CCCC1)c1ccc2c(c1)c1c(c(=O)c3ccccc3n1CCN1CCCC1)n2CCN1CCCC1 [2b] | 6
38 | O=C(OCCCN1CCCCC1)c1ccc2c(c1)c1c(c(=O)c3ccccc3n1CCCN1CCCCC1)n2CCCN1CCCCC1 [2d] | 12

What follows are molecules tested on SW620 cells (assay: MTS short-term cytotoxicity assay (72 h), SW620). Details: 72 h, MTS; standard errors ≤ 0.1.
Type: cell-based
Procedure: as §1, §2, §3

Row | Compound | SW620 IC65 [nM]
39 | O=C(OCCCN1CCCCC1)c1ccc2c(c1)c1c(c(=O)c3ccccc3n1CCCN1CCCCC1)n2CCCN1CCCCC1 [2d] | 450

Same assay, conditions: Homo sapiens, SW-620; 72 h, MTS; standard errors ≤ 0.1; read-out: SW620 IC50

Row | Compound | IC50 [nM]
40 | O=C(OCCCN1CCCCC1)c1ccc2c(c1)c1c(c(=O)c3ccccc3n1CCCN1CCCCC1)n2CCCN1CCCCC1 [2d] | 280

Same assay, conditions: SW620 cells

Row | Compound | IC50 fold lower than that of 5-FU [fold]
41 | O=C(OCCCN1CCCCC1)c1ccc2c(c1)c1c(c(=O)c3ccccc3n1CCCN1CCCCC1)n2CCCN1CCCCC1 [2d] | ~20

Source: article PMC4449006, “Targeting KRAS Oncogene in Colon Cancer Cells with 7-Carboxylate Indolo[3,2-b]quinoline Tri-Alkylamine Derivatives” (PLoS ONE, 2015)
